Experimental data from PMC10081510 (Journal of medicinal chemistry, 2022).
In brackets after ≈: the same amount, converted by molar mass. Entries after “also recorded” stand apart in the source; their conditions may differ. One block for each molecule: values may come before it.

Experiments:
MV4:11 mouse xenograft = conditions: ip (DDO-2093) and po (DDO-2213) dosing; cited from earlier work
MV4:11 cancer cells = conditions: cited from earlier work
[1] = Clinical observations during mouse PK studies; assay type: in vivo; conditions: CD-1 mice; for tolerability / clinical signs: 3 mg/kg iv and 10 mg/kg po
[2] = In vivo pharmacokinetic studies; set-up: species or system CD-1 mice; conditions: for clearance / AUC(0-inf) / Vd / bioavailability / Cmax / half-life: male, CD-1, mouse, plasma
K562 = assay: Cell proliferation assay; assay type: cell-based; conditions: Homo sapiens, K562, 120 h, read-out: Cell Proliferation Assays GI50 (nM) K562
mouse models = conditions: cited from earlier work
MV4:11 = assay: Cell proliferation assay; assay type: cell-based; conditions: GI50,K562/GI50,MV4:11
Kinetic solubility assay = assay type: physicochemical; conditions: phosphate-buffered saline, pH 7.4
WDR5 = WDR5 (Homo sapiens, UniProt P61964); assay: TR-FRET competition assay against MLL1-derived 10-mer-Thr-FAM peptide probe; assay type: binding
[3] = Microsomal intrinsic clearance assay; assay type: in vitro ADME; conditions: rat, pooled liver microsomes

Structure (SMILES): Cc1c(F)c(N)cc(C(=O)Nc2cc(-n3cc(C(=O)NCCCN4CCOCC4)nn3)ccc2N2CCN(C)CC2)c1Cl [DDO-2093]
- in vivo tumor growth inhibition (MV4:11 mouse xenograft): marginal in vivo tumor growth inhibition
- GI50 (MV4:11 cancer cells): ~10000 nM

Structure (SMILES): CCn1cc(-c2cc(Cn3ccnc3C)cc3c2CCN([C@H](c2cc(C)ccn2)C2CC2)C3=O)c(C(F)(F)F)n1 [Compound 37, (S)-2-(Cyclopropyl(4-methylpyridin-2-yl)methyl)-5-(1-ethyl-3-(trifluoromethyl)-1H-pyrazol-4-yl)-7-((2-methyl-1H-imidazol-1-yl)methyl)-3,4-dihydroisoquinolin-1(2H)-one]
- tolerability / clinical signs [1]: behaved normally during the study and showed no adverse effects
- clearance ([2]; iv, 3 mg/kg): 25 mL/min/kg

Structure (SMILES): CCn1cc(-c2cc(Cn3ccnc3)cc3c2CCN([C@H](c2cc(OC)ccn2)C2CC2)C3=O)c(C(F)(F)F)n1 [Compound 40, (S)-7-((1H-Imidazol-1-yl)methyl)-2-(cyclopropyl(4-methoxypyridin-2-yl)methyl)-5-(1-ethyl-3-(trifluoromethyl)-1H-pyrazol-4-yl)-3,4-dihydroisoquinolin-1(2H)-one]
- tolerability / clinical signs [1]: behaved normally during the study and showed no adverse effects

Structure (SMILES): CN1CCN(c2cc(F)c(-c3ccc(NC(=O)N(C)C)cc3)cc2Nc2ncnc(Cl)c2N)CC1 [DDO-2213]
- in vivo tumor growth inhibition (MV4:11 mouse xenograft): marginal in vivo tumor growth inhibition
- GI50 (MV4:11 cancer cells): ~10000 nM

- GI50 (K562): 16000 ± 3100 nM
Structure (SMILES): COc1cc(CN2CCc3c(cc(Cn4ccnc4C(C)C)cc3-c3cn(C)nc3C(F)(F)F)C2=O)cc(OC)c1 [Compound 22, 2-(3,5-Dimethoxybenzyl)-7-((2-isopropyl-1H-imidazol-1-yl)methyl)-5-(1-methyl-3-(trifluoromethyl)-1H-pyrazol-4-yl)-3,4-dihydroisoquinolin-1(2H)-one]

Structure (SMILES): CCn1cc(-c2cc(Cn3ccnc3C)cc3c2CCN([C@@H](C)c2cc(OC)ccn2)C3=O)c(C(F)(F)F)n1 [Compound 34, (S)-5-(1-Ethyl-3-(trifluoromethyl)-1H-pyrazol-4-yl)-2-(1-(4-methoxypyridin-2-yl)ethyl)-7-((2-methyl-1H-imidazol-1-yl)methyl)-3,4-dihydroisoquinolin-1(2H)-one]
- tolerability / clinical signs [1]: behaved normally during the study and showed no adverse effects
- clearance ([2]; iv, 3 mg/kg): 118 mL/min/kg

Structure (SMILES): Cc1ncsc1-c1ccc([C@H](C)NC(=O)[C@@H]2C[C@@H](O)CN2C(=O)[C@@H](NC(=O)CNC(=O)c2ccc(F)c(-c3ccc(N4C[C@@H](C)N(C)[C@@H](C)C4)c(NC(=O)c4c[nH]c(=O)cc4C(F)(F)F)c3)c2)C(C)(C)C)cc1 [MS67]
- in vivo tumor growth inhibition (mouse models): demonstrated in vivo tumor growth inhibition

Structure (SMILES): CCn1cc(-c2cc(Cn3ccnc3)cc3c2CCN([C@H](c2cc(C)ccn2)C2CC2)C3=O)c(C(F)(F)F)n1 [Compound 41, (S)-7-((1H-Imidazol-1-yl)methyl)-2-(cyclopropyl(4-methylpyridin-2-yl)methyl)-5-(1-ethyl-3-(trifluoromethyl)-1H-pyrazol-4-yl)-3,4-dihydroisoquinolin-1(2H)-one]
- Selectivity K562/MV4:11 (MV4:11): 290
- GI50 (K562): 3700 ± 3100 nM
- solubility kinetic at 1 h (Kinetic solubility assay): 60 µM (≈ 32.1 µg/mL)
- Ki (WDR5): < 0.02 nM
- tolerability / clinical signs [1]: behaved normally during the study and showed no adverse effects
- AUC(0-inf) ([2]; iv, 3 mg/kg): 1950 ng·h/mL
- Vd ([2]; iv, 3 mg/kg): 1.6 L/kg
- clearance ([2]; iv, 3 mg/kg): 26 mL/min/kg
- bioavailability ([2]; oral, 10 mg/kg): 61%
- AUC(0-inf) ([2]; po, 10 mg/kg): 3980 ng·h/mL
- Cmax ([2]; po, 10 mg/kg): 2080 ng/mL
- half-life ([2]; po, 10 mg/kg): 1.3 h

Structure (SMILES): CCn1cc(-c2cc(Cn3ccnc3)cc3c2CCN([C@@H](C)c2cc(OC)ccn2)C3=O)c(C(F)(F)F)n1 [Compound 38, (S)-7-((1H-Imidazol-1-yl)methyl)-5-(1-ethyl-3-(trifluoromethyl)-1H-pyrazol-4-yl)-2-(1-(4-methoxypyridin-2-yl)ethyl)-3,4-dihydroisoquinolin-1(2H)-one]
- half-life at 1 μM [3]: 0.367 h
- microsomal CLint at 1 μM [3]: 31 µL/min/mg
- Selectivity K562/MV4:11 (MV4:11): 200
- GI50 (K562): 1900 ± 1800 nM
- solubility kinetic at 1 h (Kinetic solubility assay): 86 µM (≈ 45.1 µg/mL)
- Ki (WDR5): < 0.02 nM
- tolerability / clinical signs [1]: behaved normally during the study and showed no adverse effects
- AUC(0-inf) ([2]; iv, 3 mg/kg): 707 ng·h/mL
- Vd ([2]; iv, 3 mg/kg): 2.3 L/kg
- clearance ([2]; iv, 3 mg/kg): 76 mL/min/kg
- bioavailability ([2]; oral, 10 mg/kg): 73%
- AUC(0-inf) ([2]; po, 10 mg/kg): 1710 ng·h/mL
- Cmax ([2]; po, 10 mg/kg): 2010 ng/mL
- half-life ([2]; po, 10 mg/kg): 1.2 h

Structure (SMILES): COc1cc(CN2CCc3c(cc(Cn4cnnc4)cc3-c3cn(C)nc3C(F)(F)F)C2=O)cc(OC)c1 [Compound 19, 7-((4H-1,2,4-Triazol-4-yl)methyl)-2-(3,5-dimethoxybenzyl)-5-(1-methyl-3-(trifluoromethyl)-1H-pyrazol-4-yl)-3,4-dihydroisoquinolin-1(2H)-one]
- Selectivity K562/MV4:11 (MV4:11): >2

Structure (SMILES): COc1cc(CN2CCc3c(cc(Cn4cccn4)cc3-c3cn(C)nc3C(F)(F)F)C2=O)cc(OC)c1 [Compound 17, 7-((1H-Pyrazol-1-yl)methyl)-2-(3,5-dimethoxybenzyl)-5-(1-methyl-3-(trifluoromethyl)-1H-pyrazol-4-yl)-3,4-dihydroisoquinolin-1(2H)-one]
- Selectivity K562/MV4:11 (MV4:11): >1

Structure (SMILES): COc1cc(CN2CCc3c(cc(Cn4ccnc4C(F)F)cc3-c3cn(C)nc3C(F)(F)F)C2=O)cc(OC)c1 [Compound 24, 7-((2-(Difluoromethyl)-1H-imidazol-1-yl)methyl)-2-(3,5-dimethoxybenzyl)-5-(1-methyl-3-(trifluoromethyl)-1H-pyrazol-4-yl)-3,4-dihydroisoquinolin-1(2H)-one]
- Selectivity K562/MV4:11 (MV4:11): >3

Structure (SMILES): CCn1cc(-c2cc(Cn3ccnc3C)cc3c2CCN([C@H](c2cc(OC)ccn2)C2CC2)C3=O)c(C(F)(F)F)n1 [Compound 36, (S)-2-(Cyclopropyl(4-methoxypyridin-2-yl)methyl)-5-(1-ethyl-3-(trifluoromethyl)-1H-pyrazol-4-yl)-7-((2-methyl-1H-imidazol-1-yl)methyl)-3,4-dihydroisoquinolin-1(2H)-one]
- GI50 (K562): 2600 ± 1500 nM
- solubility kinetic at 1 h (Kinetic solubility assay): 65 µM (≈ 36.7 µg/mL)
- Ki (WDR5): < 0.02 nM
- tolerability / clinical signs [1]: behaved normally during the study and showed no adverse effects
- AUC(0-inf) ([2]; iv, 3 mg/kg): 1240 ng·h/mL
- Vd ([2]; iv, 3 mg/kg): 1.6 L/kg
- clearance ([2]; iv, 3 mg/kg): 41 mL/min/kg
- AUC(0-inf) ([2]; po, 10 mg/kg): 508 ng·h/mL
- Cmax ([2]; po, 10 mg/kg): 652 ng/mL
- bioavailability ([2]; po, 10 mg/kg): 12%
- half-life ([2]; po, 10 mg/kg): 1.4 h

Structure (SMILES): CCc1nccn1Cc1cc2c(c(-c3cn(C)nc3C(F)(F)F)c1)CCN(Cc1cc(OC)cc(OC)c1)C2=O [Compound 21, 2-(3,5-Dimethoxybenzyl)-7-((2-ethyl-1H-imidazol-1-yl)methyl)-5-(1-methyl-3-(trifluoromethyl)-1H-pyrazol-4-yl)-3,4-dihydroisoquinolin-1(2H)-one]
- Ki (WDR5): 0.022 ± 0.001 nM

Structure (SMILES): COc1cc(CN2CCc3c(cc(Cn4cccc4)cc3-c3cn(C)nc3C(F)(F)F)C2=O)cc(OC)c1 [Compound 18, 7-((1H-Pyrrol-1-yl)methyl)-2-(3,5-dimethoxybenzyl)-5-(1-methyl-3-(trifluoromethyl)-1H-pyrazol-4-yl)-3,4-dihydroisoquinolin-1(2H)-one]
- Selectivity K562/MV4:11 (MV4:11): >2

Structure (SMILES): COc1cc(CN2CCc3c(cc(Cn4ccn(C)c4=N)cc3-c3ccc(F)cc3C)C2=O)cc(OC)c1 [Compound 1]
- acute toxicity signs ([1]; 3 mg/kg iv, 3 mg/kg): signs of severe acute toxicity; also recorded: lethality
- oral exposure ([2]; CD-1 mice, 3 mg/kg po): below the limit of quantitation
- clearance ([2]; iv, 3 mg/kg): 78 mL/min/kg
